Calls of active or inactive are those of the source.
Experiments:
Assay type in all cases: functional, organism-based
Homo sapiens [1] = species: Homo sapiens; assay: Reversible aggregation effect at low concentration; Active
Homo sapiens [2] = species: Homo sapiens; assay: Biphasic response at low concentration; Active
Homo sapiens [3] = species: Homo sapiens; assay: Agonistic activity against platelet aggregation; Effective agonist; conditions: filed as agonist

Measured: Activity

Nc1ncnc2c1ncn2[C@@H]1O[C@H](COP(=O)(O)OP(=O)(O)O)[C@@H](O)[C@H]1O
active: Homo sapiens [1] | Homo sapiens [2] | Homo sapiens [3] Agonist
